Results: patent US7625887B2, “Receptor agonists” (Takeda Pharmaceutical Company Limited, priority 2003, dated 2009)
Structures can show the parent of a compound that is named as a salt.

Experiments:
Assay type in all cases: cell-based
rat TGR5 = biological target: T1, rat TGR5 (Rattus norvegicus, UniProt Q80T02); test: cAMP production increasing activity in rat type TGR5 expressing CHO cells; conditions: 0.5 h, read-out: cAMP producing activity (control %)
T1 construct: expressed in transfected cells; host or cells: CHO cells
T1 sequence (Q80T02 1-329): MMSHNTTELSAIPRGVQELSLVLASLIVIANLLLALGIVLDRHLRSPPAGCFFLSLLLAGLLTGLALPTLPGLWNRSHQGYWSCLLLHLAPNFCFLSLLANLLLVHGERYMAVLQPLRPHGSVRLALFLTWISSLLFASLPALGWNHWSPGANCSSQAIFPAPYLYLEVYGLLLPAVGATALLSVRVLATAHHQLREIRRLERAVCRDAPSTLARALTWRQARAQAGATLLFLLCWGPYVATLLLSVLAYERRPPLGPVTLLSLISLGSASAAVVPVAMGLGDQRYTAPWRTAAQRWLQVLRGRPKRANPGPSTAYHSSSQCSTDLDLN
Method: (§1) After culture, the cells were detached with 0.5 mM EDTA/PBS, washed with PBS, and suspended in Buffer 1 (HBSS+0.1% BSA, 25 mM HEPES pH 7.3, 0.5 mM IBMX) at a density of 1×10^7 cells/ml. The obtained cell suspension (460 μl), anti-cAMP acceptor beads (23 μl) of AlphaScreen cAMP assay kit (Perkin Elmer) and Buffer 1 (667 μl) were mixed and dispensed to a white 96 well plate (Costar) by 10 μl. Then, a test compound diluted with Buffer 1 was added to each well by 10 μl. At this time, one row of the plate was free of the cell suspension but added with anti-cAMP acceptor beads (9 μl) and Buffer 1 (441 μl) alone, and serial dilutions of cAMP were added instead of the test compound and used as the standard. A mixture of the cell suspension and the test compound contained in the plate was allowed to react at room temperature for 30 min. […] The plate was shaken at room temperature for 2.5 hrs and fluorescence intensity was measured by Fusion α (Parkin Elmer), and the cAMP concentration of each well was calculated using the cAMP standard on each plate.

human TGR5 [1] = biological target: T2, human TGR5 (Homo sapiens, UniProt Q8TDU6); test: cAMP production increasing activity in human TGR5 expressing CHO cells; conditions: read-out: EC50 value (concentration necessary to make the cAMP production amount 50%)
T2 construct: expressed in transfected cells; host or cells: CHO cells
T2 sequence (Q8TDU6 1-330): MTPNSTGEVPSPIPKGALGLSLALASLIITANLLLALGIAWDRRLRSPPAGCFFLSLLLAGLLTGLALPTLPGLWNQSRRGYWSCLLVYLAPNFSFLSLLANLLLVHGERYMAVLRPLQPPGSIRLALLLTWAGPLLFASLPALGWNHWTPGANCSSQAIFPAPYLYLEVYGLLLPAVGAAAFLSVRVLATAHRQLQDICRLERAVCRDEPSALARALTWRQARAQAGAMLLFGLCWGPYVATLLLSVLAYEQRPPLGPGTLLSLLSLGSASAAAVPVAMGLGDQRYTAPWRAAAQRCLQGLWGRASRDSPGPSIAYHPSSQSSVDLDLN

guinea pig TGR5 = test: cAMP production increasing activity in guinea pig TGR5 expressing CHO cells; conditions: test compound 2 μM; 10 μM lithocholic acid = 100%; average of 3 groups
Method: as §1, with “The guinea pig type TGR5 expressing CHO cells were seeded in one 150 cm^2 flask at 1×10^7 cells, and cultured overnight at 37° C., 5% CO2. After” for “After”

human TGR5 [2] = biological target: T2, human TGR5; test: cAMP production increasing activity in human TGR5 expressing CHO cells; conditions: test compound 1 μM, 30 min; 1 μM lithocholic acid = 100%, no addition = 0%; average of 3 groups
Method: As the assay buffer, Hank's balanced salt solution (HBSS, Invitrogen) supplemented with 0.1% bovine serum albumin (BSA, Sigma) and 0.5 mM 3-isobutyl-1-methylxanthine (IBMX, Sigma) was used. A test compound sample (1 μM) diluted with the assay buffer was added to the cells. The cells were incubated at 37° C. for 30 min. and the supernatant was suctioned. The intracellular cAMP amount increased by the stimulation of the test compound was quantitatively determined using a HitHunter™ EFC Cyclic AMP Chemiluminescence Assay Kit (ABI) kit.

Row | SMILES | activation at 2 µM (rat TGR5) [%] | EC50 (human TGR5 [1]) [nM] | cAMP producing activity (control %) (guinea pig TGR5) | cAMP production increasing activity (control %) (human TGR5 [2])
1 | CC(=O)NCc1cccc(C2OC(CC(=O)NCC3CCCCCC3)C(=O)N(CC(C)(C)C)c3ccc(Cl)cc32)c1 (stereo not drawn) [Example 17, 2-[3,5-trans-5-[3-(acetylaminomethyl)phenyl]-7-chloro-1-neopentyl-2-oxo-1,2,3,5-tetrahydro-4,1-benzoxazepin-3-yl]-N-(cycloheptylmethyl)acetamide] | 107 | < 100 | – | –
2 | Fc1ccc(-c2ccnc3c2CN(Cc2cc(C(F)(F)F)cc(C(F)(F)F)c2)CCCCO3)cc1 [Example 61C, 6-[3,5-bis(trifluoromethyl)benzyl]-8-(4-fluorophenyl)-2,3,4,5,6,7-hexahydropyrido[2,3-b][1,5]oxazonine] | 101 | < 100 | – | –
3 | COC(=O)NCc1cccc(C2OC(CC(=O)NCC3CCCCC3)C(=O)N(CC(C)(C)C)c3ccc(Cl)cc32)c1 (stereo not drawn) [Example 30, methyl [3-[3,5-trans-7-chloro-3-[2-[(cyclohexylmethyl)amino]-2-oxoethyl]-1-neopentyl-2-oxo-1,2,3,5-tetrahydro-4,1-benzoxazepin-5-yl]benzyl]carbamate] | 114 | < 100 | 86 | –
4 | O=S(=O)(c1cccc2ccccc12)N1CCOc2nccc(-c3ccccc3)c2C1 [Example 42C, 4-(1-naphthylsulfonyl)-6-phenyl-2,3,4,5-tetrahydropyrido[3,2-f][1,4]oxazepine] | – | < 100 | 104 | –
5 | CC(C)(C)CN1C(=O)[C@@H](CC(=O)NCc2ccccc2F)O[C@@H](c2cccc(CNC(=O)C(F)(F)F)c2)c2cc(Cl)ccc21 (relative stereo) [Reference Example 5, N-[3-[3,5-trans-7-chloro-3-[2-[(2-fluorobenzyl)amino]-2-oxoethyl]-1-neopentyl-2-oxo-1,2,3,5-tetrahydro-4,1-benzoxazepin-5-yl]benzyl]-2,2,2-trifluoroacetamide] | – | – | – | 116
6 | O=C(c1cc(Cl)cc(Cl)c1)N1CCOc2nccc(-c3ccccc3)c2C1 [Example 32C, 4-(3,5-dichlorobenzoyl)-6-phenyl-2,3,4,5-tetrahydropyrido[3,2-f][1,4]oxazepine] | – | – | 89 | –
7 | COC(=O)NCc1cccc(C2OC(CC(=O)NCc3ccccc3F)C(=O)N(CC(C)C)c3ccc(Cl)cc32)c1 (stereo not drawn) [Example 43, methyl [3-[3,5-trans-7-chloro-3-[2-[(2-fluorobenzyl)amino]-2-oxoethyl]-1-isobutyl-2-oxo-1,2,3,5-tetrahydro-4,1-benzoxazepin-5-yl]benzyl]carbamate] | – | < 100 | 82 | –
8 | CC(C)(C)CN1C(=O)[C@@H](CC(=O)NCc2ccccc2F)O[C@@H](c2cccc(CNS(C)(=O)=O)c2)c2cc(Cl)ccc21 (relative stereo) [Reference Example 4, 2-[3,5-trans-7-chloro-5-[3-(methanesulfonylaminomethyl)phenyl]-1-neopentyl-2-oxo-1,2,3,5-tetrahydro-4,1-benzoxazepin-3-yl]-N-(2-fluorobenzyl)acetamide] | – | – | – | 80
9 | CC(C)(C)CN1C(=O)[C@@H](CC(=O)NCc2ccccc2F)O[C@@H](c2cccc(C3OCCO3)c2)c2cc(Cl)ccc21 (relative stereo) [Reference Example 2, 2-[3,5-trans-7-chloro-5-[3-([1,3]dioxolan-2-yl)phenyl]-1-neopentyl-2-oxo-1,2,3,5-tetrahydro-4,1-benzoxazepin-3-yl]-N-(2-fluorobenzyl)acetamide] | – | – | – | 108
10 | CC(C)(C)CN1C(=O)C(CC(=O)NCc2ccccc2F)N(Cc2ccncc2)Cc2ccccc21 (centres unmarked) [Example 30B, N-(2-fluorobenzyl)-2-[1-neopentyl-2-oxo-4-(pyridin-4-ylmethyl)-2,3,4,5-tetrahydro-1H-1,4-benzodiazepin-3-yl]acetamide] | 108 | < 100 | – | –
11 | FC(F)(F)c1cc(CCN2CCOc3nccc(-c4ccccc4)c3C2)cc(C(F)(F)F)c1 [Example 45C, 4-{2-[3,5-bis(trifluoromethyl)phenyl]ethyl}-6-phenyl-2,3,4,5-tetrahydropyrido[3,2-f][1,4]oxazepine hydrochloride] | – | < 100 | – | –
12 | CC(C)(C)CN1C(=O)[C@@H](CC(=O)NCc2ccccc2F)O[C@@H](c2cccc(CO)c2)c2cc(Cl)ccc21 (relative stereo) [Reference Example 9, 2-[3,5-trans-7-chloro-5-[3-(hydroxymethyl)phenyl]-1-neopentyl-2-oxo-1,2,3,5-tetrahydro-4,1-benzoxazepin-3-yl]-N-(2-fluorobenzyl)acetamide] | – | – | – | 128
13 | O=S(=O)(c1cc(C(F)(F)F)cc(C(F)(F)F)c1)N1CCCOc2nccc(-c3ccc(F)cc3)c2C1 [Example 60C, 5-{[3,5-bis(trifluoromethyl)phenyl]sulfonyl}-7-(4-fluorophenyl)-3,4,5,6-tetrahydro-2H-pyrido[2,3-b][1,5]oxazocine] | – | < 100 | – | –
14 | CC(C)(C)CN1C(=O)[C@@H](CC(=O)NCc2ccccc2F)O[C@@H](c2cccc(N)c2)c2cc(Cl)ccc21 (relative stereo) [Reference Example 1, 2-[3,5-trans-5-(3-aminophenyl)-7-chloro-1-neopentyl-2-oxo-1,2,3,5-tetrahydro-4,1-benzoxazepin-3-yl]-N-(2-fluorobenzyl)acetamide] | – | – | – | 97
15 | CC(C)(C)CN1C(=O)C(CC(=O)NCc2ccccc2F)OC(c2cccc(Cn3ccnc3)c2)c2cc(Cl)ccc21 (stereo not drawn) [Example 60, 2-[3,5-trans-7-chloro-5-[3-(1H-imidazol-1-ylmethyl)phenyl]-1-neopentyl-2-oxo-1,2,3,5-tetrahydro-4,1-benzoxazepin-3-yl]-N-(2-fluorobenzyl)acetamide] | – | < 100 | – | –
16 | Cc1cc(C(=O)N2Cc3ccccc3N(CC(C)C)C(=O)C2CC(=O)NCc2ccccc2F)ccn1 (centres unmarked) [Example 23B, N-(2-fluorobenzyl)-2-[1-isobutyl-4-(2-methylisonicotinoyl)-2-oxo-2,3,4,5-tetrahydro-1H-1,4-benzodiazepin-3-yl]acetamide] | – | < 100 | – | –
